Measured values published in patent publication US20070025974A1, “Amylases producing an altered immunogenic response and methods of making and using the same” (priority 2003, published 2007).

System: human CD4+ T-cells
Test: I-MUNE assay: T-cell proliferation (tritiated thymidine) with dendritic cells and CD4+ T-cells
Assay type: cell-based
Conditions: approximately 5 Lf/mL

tetanus toxoid
positive control proliferative response: robust positive control responses
